Experimental data published in the METLIN SMRT retention time set (Domingo-Almenara et al. 2019).

Test: gradient 5% acetonitrile 3 min, to 50% in 2 min, to 85% in 15 min, held 3 min, 100 µL/min
Details: column: Zorbax Extend-C18 2.1 x 50 mm; eluents: water / acetonitrile, 0.1% formic acid
Outline: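 The system's dead and dwell volumes were 40 μL and 900 μL, with a Zorbax Extend-C18 column (2.1 × 50 mm, 1.8 μm) run at 100 μL/min in water and acetonitrile containing 0.1% formic acid each. Pure standards were analyzed in mixtures of ~100 molecules by HPLC–quadrupole time-of-flight mass spectrometry in positive and negative ionization mode. Retention time was assigned from computationally picked, manually inspected adduct peaks.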

Row | RP-LC retention time | Compound
1 | 726 s | O=C(NC1CCN(c2cc(-c3cccs3)[nH]n2)C1)c1ccc(F)cc1Cl (configuration not stated)
2 | 714 s | Cc1nnc(N2CCCC(C(=O)NCCCOC(C)C)C2)c2nn(-c3ccc(Cl)cc3)c(C)c12 (configuration not stated)
3 | 598 s | O=C(NCc1cccnc1)C1CC(=O)N(c2ccc3c(c2)CCN3C(=O)C2CCC2)C1 (configuration not stated)
4 | 825 s | Cc1nc(-c2ccc(N3CCN(C(=O)c4cccc(C#N)c4)CC3)nc2)sc1C
5 | 657 s | O=C(NCc1cccnc1)c1cccn2c(=O)c3cc(Cl)ccc3nc12
6 | 742 s | Cc1cc2c(=O)n(CC(=O)Nc3cccc(Cl)c3)c3cccnc3n2n1
7 | 700 s | Cc1nnc(NC(=O)CSc2nnc(-c3ccccc3F)o2)s1
8 | 932 s | Cn1nccc1C(=O)NCc1ccc(-c2nc(-c3ccccc3)no2)s1
9 | 920 s | COc1ccccc1CNC(=O)Cn1cccc1-c1nnc(-c2ccccc2)o1
10 | 722 s | Cc1cccc(-c2nc(C)c3c(n2)N(Cc2cccnc2)C(=O)CC3)c1
11 | 1020 s | O=c1ccc(-c2cccc(Br)c2)nn1Cc1nc(-c2cccs2)no1
12 | 808 s | Cc1ccc(N2C(=O)CCS2(=O)=O)cc1S(=O)(=O)Nc1cccc2cccnc12
13 | 624 s | O=C(NCCn1c(-c2ccncc2)nc2cccnc21)Nc1ccccc1Cl
14 | 704 s | CC(=O)NCc1nc(-c2cccc(-c3csc(C)n3)c2)no1
15 | 841 s | CCOc1ccccc1C(=O)Nc1c(C(=O)Nc2ccccc2F)oc2cccnc12
16 | 1170 s | COc1ccc(-n2c(=O)c(C(=O)NCc3ccc(F)cc3F)c(O)c3cccnc32)cc1
17 | 809 s | CCn1nnc2cc(-c3noc(C4CC(=O)N(c5cccc(Cl)c5)C4)n3)ccc21 (configuration not stated)

Row | RP-LC retention time | Compound
18 | 977 s | Cc1nc2cc(-c3noc(-c4cccc(C#N)c4)n3)ccc2o1
19 | 1200 s | CCCN1C(=O)COc2ccc(-c3noc(-c4cccc(F)c4)n3)cc21
20 | 720 s | CCCCN(Cc1nc2nc(C)cc(C)n2n1)C(=O)c1ccco1
21 | 721 s | CNC(=O)[C@H]1O[C@@H](n2cnc3c(NCc4cccc(I)c4)ncnc32)C(O)C1O (some centres not stated)
22 | 1080 s | COc1ccccc1N1CCN(c2cc(SCC(=O)Nc3ccc(Cl)cc3)ncn2)CC1
23 | 951 s | COc1ccc(NC(=O)CSc2nnc3c4cc(-c5ccc(Cl)cc5)nn4ccn23)c(OC)c1
24 | 631 s | COc1ccc(CNC(=O)CSc2ccc(N3CCCC(C(=O)NC4CC4)C3)nn2)cc1 (configuration not stated)
25 | 697 s | O=C(CCCNC(=O)c1cc(-c2cccs2)[nH]n1)Nc1cccc2cccnc12
26 | 1100 s | Cc1ccc(C)c(CNS(=O)(=O)c2cc(-c3csc(C)n3)sc2C)c1
27 | 769 s | COc1cc(NC(=O)NC2CCN(c3ccc(F)cc3)C2=O)cc(OC)c1 (configuration not stated)
28 | 708 s | COc1ccccc1OCCNC(=O)COc1ccc(NC(=O)C2CC2)cn1
29 | 675 s | COC(=O)c1cccc(NC(=O)C2CCN(c3c(C#N)cnc4ccccc34)CC2)c1
30 | 880 s | COc1ccc(-c2cc3nn(CC(=O)NCc4ccc(F)cc4)c(=O)n3c(C)n2)cc1
31 | 850 s | Cc1cc2c(=O)n(CC(=O)Nc3cccc(Br)c3)ccc2s1
32 | 1280 s | Clc1cccc(-c2noc(Cc3nc(-c4ccccc4)cs3)n2)c1
33 | 1320 s | Cc1ccc(-c2cc3c(=O)n(Cc4nc(-c5cccc(Br)c5)no4)ncn3n2)c(C)c1

The remaining lines, values behind:

Row | Compound | RP-LC retention time
34 | Cc1ccccc1-n1c(=O)c2sccc2n(Cc2nc(-c3ccc(F)c(Cl)c3)no2)c1=O | 1110 s
35 | COc1ccc(Nc2nc(N3CCN(c4ncccn4)CC3)nc3c2C(=O)CC(C)(C)C3)cc1 | 1250 s
36 | CCOC(=O)c1[nH]c(C)c(CN(Cc2ccco2)C(=O)Cc2ccc(F)cc2)c1C | 1020 s
37 | O=C1CCCC2=C1C(c1ccccc1Cl)C1=C(CCCC1=O)O2 | 812 s
38 | Cc1nccn1Cc1nc(-c2ccc(F)c(Cl)c2)no1 | 654 s
39 | O=C(CCn1nnc2cc(-c3noc(/C=C/c4ccccc4)n3)ccc21)N1CCCC1 | 954 s
40 | CCCCN(CC)C(=O)c1cc2c(=O)n3ccccc3nc2n1C | 813 s
41 | CS(=O)(=O)N1CCCC(C(=O)Nc2ccc3c(c2)C(=O)NC3=O)C1 (configuration not stated) | 612 s
42 | Cc1csc(-c2cc(S(=O)(=O)NC3CC3)c(C)n2C)n1 | 809 s
43 | COc1ccc(OC)c(NC(=O)Cn2nc(N3CCOCC3)c3ccccc3c2=O)c1 | 796 s
44 | CCCCC(=O)Nc1ccc2c(c1)nc(CN1CCN(C)CC1)n2C(C)C | 575 s
45 | COc1cccc(S(=O)(=O)N2CCC(c3noc(-c4cccnc4)n3)C2)c1 (configuration not stated) | 846 s
46 | Cc1nn(-c2ccc(F)cc2)c(C)c1S(=O)(=O)N1CCC(C(=O)N2CCCCC2)CC1 | 914 s
47 | CSc1nc2ccc3nc(NC(=O)c4cc(C)no4)sc3c2s1 | 1010 s
48 | Cc1ccc2[nH]cc(CCN3CC(C(=O)Nc4ccc(C)c(C)c4)CC3=O)c2c1 (configuration not stated) | 910 s
49 | Cc1ccc(C(=O)N(CC(=O)N(Cc2ccco2)CC2CCCO2)C(C)(C)C)cc1 (configuration not stated) | 907 s
50 | O=S(=O)(Cc1ccccc1Cl)N1CCc2nc(-c3ccc(Cl)cc3)ncc2C1 | 1220 s
51 | CC(C)(C)C(=O)Nc1ccc2nc(N3CCN(c4ccccc4Cl)CC3)cc(C(=O)O)c2c1 | 750 s
52 | Cc1c(C2CCN(C(=O)c3ccc(Br)cc3)CC2)noc1N | 728 s
53 | O=C(/C=C/c1ccccc1)NC(NC(=S)Nc1ccc(Cl)cc1)C(Cl)(Cl)Cl (configuration not stated) | 1030 s
54 | COCCCNc1nc(-c2ccc(C(C)(C)C)cc2)nc2ccccc12 | 843 s
55 | COc1cc(Nc2c(C(=O)N3CCCC3)cnc3nc(C)ccc23)cc(OC)c1 | 616 s
56 | CCOC(=O)N1CCc2c(sc(NC(=O)C3CCCN(S(C)(=O)=O)C3)c2C#N)C1 (configuration not stated) | 767 s
57 | Cc1ccc(F)c(NS(=O)(=O)c2ccc3c(c2)C(=O)N(C)c2ncccc2O3)c1 | 924 s
58 | O=C(NC1CCCC1)C1CCCN(c2nc3ccsc3c(=O)n2Cc2ccc(F)cc2)C1 (configuration not stated) | 913 s
59 | COc1ccccc1Nc1c(-c2ccc3c(c2)OCO3)nc2cnccn12 | 859 s
60 | O=C(Cn1c(=O)cc(C(=O)N2CCCCC2)c2ccccc21)NC1CCCCC1 | 753 s

Row | Compound | RP-LC retention time
61 | O=C(c1nnn2c1COC(c1ccc(Cl)cc1)C2)N1CCSCC1 (configuration not stated) | 949 s
62 | Cc1ccc(C)c(CS(=O)(=O)NCCc2cn(CC(C)C)c3ncccc23)c1 | 1070 s
63 | CCN1CCCn2cc(S(=O)(=O)NCc3ccc(F)cc3Cl)cc2C1=O | 771 s
64 | COc1cccc(N2CCN(c3nc(C(=O)NCCN4CCOCC4)cs3)CC2)c1 | 667 s
65 | Cc1cccc(N2CCN(C(=O)c3ccnc(N4CCCC4)n3)CC2)c1 | 894 s
66 | Cc1cccc(C(=O)N2CCc3cc(CNS(=O)(=O)c4ccc5c(c4)CC(=O)N5C)ccc32)c1 | 836 s
67 | CCn1c(=O)c2c(cc(C)n2C)n(CC(=O)Nc2ccc(C)cc2Cl)c1=O | 871 s
68 | COc1ccc(-c2noc(Cc3nnc(-c4cccc(OC)c4)o3)n2)cc1 | 992 s
69 | O=C(Nc1ccc(C(F)(F)F)cc1)N1CCCC(Cn2c(C3CC3)nc3cccnc32)C1 (configuration not stated) | 798 s
70 | COc1cccc(NS(=O)(=O)c2ccc3c(c2)C(=O)N(C)c2ncccc2O3)c1 | 889 s
71 | CC1=C(c2ccc(C)cc2)S(=O)(=O)N=C1N1CCC(NC(=O)C2CCCO2)CC1 (configuration not stated) | 902 s
72 | CC(C)Nc1nc(-c2ccc([N+](=O)[O-])cc2)nc2ccccc12 | 751 s
73 | Cc1cc(S(=O)(=O)N2CCC3(CC2)NCCCN=C3NC2CCCC2)ccc1F | 768 s
74 | Cc1ccc(-c2nc3cnccn3c2Nc2ccccc2C)cc1 | 969 s
75 | O=C(C1CCN(c2nc3ccc(-c4ccsc4)nc3s2)CC1)N1CCOCC1 | 826 s
76 | O=C(COc1ccccc1Cl)N1CCCCC1CCN1CCCC1 (configuration not stated) | 656 s
77 | Cc1noc(C)c1CC(=O)N1CCOc2ccc(N(C)C)cc2C1 | 584 s
78 | CCc1cccc(C)c1N(C(=O)Cn1c(COC)nc2ccccc21)C(C)COC (configuration not stated) | 850 s
79 | Cc1ccc(-c2cc(C(=O)NCCC3=CCCCC3)c(C)[nH]2)cc1C | 1120 s
80 | CN1C[C@@H](NS(=O)(=O)N(C)C)C[C@@H]2c3cccc4c3c(cn4C)C[C@H]21 | 698 s
81 | Cn1nc(-c2nnc(-c3ccccc3F)o2)c2c1CCN(S(=O)(=O)c1ccc3c(c1)CCC3)C2 | 1010 s
82 | CNc1nc(N2CCOCC2)nc2ccccc12 | 582 s
83 | O=C1C2CC=CCC2C(=O)N1c1ccc(N2CCN(c3ccccn3)CC2)c([N+](=O)[O-])c1 (configuration not stated) | 676 s
84 | CCOC(=O)Cn1c(C2CC(=O)N(c3cccc(Cl)c3)C2)nc2ccccc21 (configuration not stated) | 872 s
85 | CCOc1cc(-c2noc(-c3nnn4c3COC(c3ccc(Cl)cc3)C4)n2)ccc1OC (configuration not stated) | 1190 s
86 | CCOc1cccc(-c2noc(CN3C(=O)COc4cc(C)ccc43)n2)c1 | 1130 s
87 | Cc1ccc(NC(=O)N2C[C@@H](F)C[C@H]2C(=O)N2CCCCC2)cc1F | 755 s
